Data on four compounds can be found in PMC9104438, “Application of a Fluorescence Anisotropy-Based Assay to Quantify Transglutaminase 2 Activity in Cell Lysates” (International Journal of Molecular Sciences, 2022).

Where only a bound is given, the exact number is not on record here.

What is called IC50 is the concentration at which inhibition is half-maximal.

Holding throughout (assay): FA-based assay, characterization of irreversible inhibitors
The target in one test is T1, hTGase 6 (Homo sapiens, UniProt O95932).
T1 sequence (O95932 1-706): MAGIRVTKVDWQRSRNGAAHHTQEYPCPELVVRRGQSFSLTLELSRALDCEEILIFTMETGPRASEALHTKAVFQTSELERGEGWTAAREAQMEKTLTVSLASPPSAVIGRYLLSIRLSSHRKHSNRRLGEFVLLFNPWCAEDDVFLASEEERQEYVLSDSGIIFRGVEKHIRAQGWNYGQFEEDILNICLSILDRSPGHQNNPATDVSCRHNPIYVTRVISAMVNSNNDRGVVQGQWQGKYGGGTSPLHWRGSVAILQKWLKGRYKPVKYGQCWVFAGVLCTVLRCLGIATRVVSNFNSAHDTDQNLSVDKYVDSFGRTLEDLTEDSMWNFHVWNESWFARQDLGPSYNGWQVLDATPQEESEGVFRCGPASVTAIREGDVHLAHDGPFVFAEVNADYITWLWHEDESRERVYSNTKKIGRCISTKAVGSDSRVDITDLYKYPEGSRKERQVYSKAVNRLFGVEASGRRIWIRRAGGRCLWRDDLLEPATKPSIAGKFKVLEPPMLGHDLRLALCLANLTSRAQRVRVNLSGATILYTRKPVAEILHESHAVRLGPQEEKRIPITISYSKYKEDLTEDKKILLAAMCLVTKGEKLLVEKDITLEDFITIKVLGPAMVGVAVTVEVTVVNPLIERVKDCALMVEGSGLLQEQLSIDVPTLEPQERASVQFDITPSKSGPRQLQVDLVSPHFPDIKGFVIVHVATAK

The target in a further test is T2, hTGase 3 (Homo sapiens, UniProt Q08188).
T2 sequence (Q08188 2-467 limits assumed): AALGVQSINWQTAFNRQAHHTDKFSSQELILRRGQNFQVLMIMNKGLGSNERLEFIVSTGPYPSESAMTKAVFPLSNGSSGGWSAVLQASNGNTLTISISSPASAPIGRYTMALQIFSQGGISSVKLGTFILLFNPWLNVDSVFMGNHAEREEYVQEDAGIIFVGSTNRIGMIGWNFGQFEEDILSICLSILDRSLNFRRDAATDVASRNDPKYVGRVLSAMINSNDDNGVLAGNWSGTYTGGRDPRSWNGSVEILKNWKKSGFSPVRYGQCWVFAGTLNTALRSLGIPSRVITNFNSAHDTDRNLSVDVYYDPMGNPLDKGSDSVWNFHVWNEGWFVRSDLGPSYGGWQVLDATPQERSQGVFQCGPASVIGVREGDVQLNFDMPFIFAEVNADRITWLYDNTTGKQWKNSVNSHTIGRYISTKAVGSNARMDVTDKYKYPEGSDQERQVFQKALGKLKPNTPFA
T2 sequence (Q08188 468-693 partner limits assumed): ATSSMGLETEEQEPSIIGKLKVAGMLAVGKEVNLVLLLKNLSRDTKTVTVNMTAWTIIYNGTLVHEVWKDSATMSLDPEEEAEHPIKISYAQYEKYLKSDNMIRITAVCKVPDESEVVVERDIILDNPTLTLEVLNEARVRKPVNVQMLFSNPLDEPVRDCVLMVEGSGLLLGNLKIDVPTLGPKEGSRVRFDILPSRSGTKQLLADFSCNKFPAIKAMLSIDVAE

The target in the next test is T3, hFXIIIa (Homo sapiens, UniProt P00488).
T3 sequence (P00488 39-732 limits assumed): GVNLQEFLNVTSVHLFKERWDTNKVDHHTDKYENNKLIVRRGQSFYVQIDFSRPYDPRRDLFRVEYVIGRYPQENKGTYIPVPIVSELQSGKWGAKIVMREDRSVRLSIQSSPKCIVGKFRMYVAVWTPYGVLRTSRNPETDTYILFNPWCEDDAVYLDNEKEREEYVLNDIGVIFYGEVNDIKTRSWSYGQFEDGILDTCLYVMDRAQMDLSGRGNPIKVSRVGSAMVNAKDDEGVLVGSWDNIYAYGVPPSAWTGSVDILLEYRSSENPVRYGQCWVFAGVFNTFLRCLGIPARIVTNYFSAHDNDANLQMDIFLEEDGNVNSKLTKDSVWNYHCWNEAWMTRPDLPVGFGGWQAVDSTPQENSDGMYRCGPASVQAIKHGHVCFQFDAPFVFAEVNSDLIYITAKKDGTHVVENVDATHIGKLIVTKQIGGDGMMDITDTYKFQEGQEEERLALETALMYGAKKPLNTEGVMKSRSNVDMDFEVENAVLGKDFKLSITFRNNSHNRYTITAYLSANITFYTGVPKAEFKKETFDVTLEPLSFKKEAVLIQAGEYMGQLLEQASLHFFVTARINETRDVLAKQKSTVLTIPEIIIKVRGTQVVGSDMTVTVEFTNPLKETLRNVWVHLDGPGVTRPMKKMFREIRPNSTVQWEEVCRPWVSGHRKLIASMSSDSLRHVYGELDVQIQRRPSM

Another test has as its target T4, hTGase 2 (Homo sapiens, UniProt P21980).
T4 sequence (P21980 1-687): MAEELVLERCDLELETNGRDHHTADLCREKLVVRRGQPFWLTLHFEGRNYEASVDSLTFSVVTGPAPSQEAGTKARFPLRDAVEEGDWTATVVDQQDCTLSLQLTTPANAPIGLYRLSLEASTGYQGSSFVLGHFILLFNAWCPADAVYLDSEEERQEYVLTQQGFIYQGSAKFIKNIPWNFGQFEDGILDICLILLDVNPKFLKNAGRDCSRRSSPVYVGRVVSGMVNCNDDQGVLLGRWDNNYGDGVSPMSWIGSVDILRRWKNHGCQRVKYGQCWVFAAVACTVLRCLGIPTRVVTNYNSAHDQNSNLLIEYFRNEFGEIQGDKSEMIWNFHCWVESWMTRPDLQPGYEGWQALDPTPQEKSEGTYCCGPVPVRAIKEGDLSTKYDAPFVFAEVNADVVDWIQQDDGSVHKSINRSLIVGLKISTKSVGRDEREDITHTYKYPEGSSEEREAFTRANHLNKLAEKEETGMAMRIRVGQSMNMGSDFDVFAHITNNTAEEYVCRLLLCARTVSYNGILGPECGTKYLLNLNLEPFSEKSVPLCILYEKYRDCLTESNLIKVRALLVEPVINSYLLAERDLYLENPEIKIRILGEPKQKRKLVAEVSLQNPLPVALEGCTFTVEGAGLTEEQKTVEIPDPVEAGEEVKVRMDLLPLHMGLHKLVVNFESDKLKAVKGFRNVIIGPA
The following applies: DMC 30 µM, mean (SEM).

Setting [1] is: IC50 hTGase 2, preincubation 5 min, R-I-Cad 0.81 µM, hTGase 2 2 µg/mL.
Where [2] appears, read: IC50 hTGase 2, preincubation 30 min, R-I-Cad 0.74 µM, hTGase 2 5 µg/mL.

In the case of `C=CC(=O)NCCCC[C@H](NC(=O)Cc1ccccc1)C(=O)N1CCN(c2cccc(-c3cn(CCOCCOCCOCCNC(=O)CCCC[C@@H]4SC[C@@H]5NC(=O)N[C@@H]54)nn3)n2)CC1` [Compound 4, N-(2-(2-(2-(2-(4-(6-(4-(N^6-acryloyl-N^2-(2-phenylacetyl)-L-lysyl)piperazin-1-yl)pyridin-2-yl)-1H-1,2,3-triazol-1-yl)ethoxy)ethoxy)ethoxy)ethyl)-5-((3aS,4S,6aR)-2-oxohexahydro-1H-thieno[3,4-d]imidazol-4-yl)pentanamide], the IC50 on hTGase 6 is 21.8 µM; at hTGase 3, over 100 µM; on hFXIIIa, 7.12 µM; against hTGase 2 (setting [1]), 0.249 µM; against hTGase 2 (setting [2]), 0.068 µM.

Consider `C=CC(=O)NCCCC[C@H](NC(=O)Cc1ccccc1)C(=O)N1CCN(c2cccc(C)n2)CC1` [Compound 1], for which the IC50 against hTGase 6 was over 30 µM; at hTGase 3, over 30 µM; on hFXIIIa, over 30 µM; against hTGase 2 (setting [2]), 0.04 µM.

As to `C#Cc1cccc(N2CCN(C(=O)[C@H](CCCCNC(=O)C=C)NC(=O)Cc3ccccc3)CC2)n1` [Compound 3, N^α-Phenylacetyl-N^ε-acryloyl-L-lysine-4-(6-ethinylpyridin-2-yl)piperazide], the IC50 against hTGase 6 was 38.4 µM; on hTGase 3, over 100 µM; on hFXIIIa, 26.2 µM; against hTGase 2 (setting [1]) it was 0.441 µM; on hTGase 2 (setting [2]), 0.096 µM.

As for `C=CC(=O)NCCCC[C@H](NC(=O)Cc1ccccc1)C(=O)N1CCN(c2ccc([N+](=O)[O-])nc2)CC1` [Compound 2], the IC50 worked out at 19.5 µM against hTGase 6, 32.8 µM on hTGase 3, 17.6 µM against hFXIIIa and 0.042 µM against hTGase 2 (setting [2]).
